In patent publication US20220348572A1, “BRIDGED HETEROCYCLYL-SUBSTITUTED PYRIMIDINE COMPOUND, PREPARATION METHOD THEREFOR, AND PHARMACEUTICAL USE THEREOF” (The National Institutes of Pharmaceutical R&D Co., Ltd., priority 2019, published 2022) one finds IC50 data, which are given here for 27 compounds.

Bounds are passed on as bounds.

For orientation: IC50 means the concentration that gives 50% inhibition.

The target of the assay is T1, JAK1 kinase (Homo sapiens, UniProt P23458).
T1 construct: purchased Invitrogen PV4744
T1 sequence (P23458 866-1154 limits assumed): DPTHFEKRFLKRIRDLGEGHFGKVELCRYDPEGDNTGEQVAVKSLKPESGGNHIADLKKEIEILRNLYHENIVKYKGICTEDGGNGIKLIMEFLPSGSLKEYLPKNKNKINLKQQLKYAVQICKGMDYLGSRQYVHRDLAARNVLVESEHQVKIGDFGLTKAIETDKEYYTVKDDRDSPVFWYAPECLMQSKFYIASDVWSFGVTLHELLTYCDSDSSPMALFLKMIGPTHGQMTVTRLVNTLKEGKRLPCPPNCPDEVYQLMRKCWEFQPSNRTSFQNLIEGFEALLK
In words: In vitro inhibitory activity on JAK1 kinase (ADP-Glo Kinase Assay). The assay is classed as biochemical. Particulars: JAK1 kinase 4 nM, 1 mM ATP. As for the experimental part: Test Example 1: Determination of In Vitro Inhibitory Activity of the Compounds of the Present Invention on JAK1 Kinase Experimental materials: JAK1 kinase (Invitrogen, PV4744), ATP (Promega, V915B), ADP-Glo Kinase Assay (Promega, V9101), IRS1 (Signalchem, 140-58-1000). Sample preparation: The compounds of the present invention and the control product were dissolved in DMSO solvent respectively to formulate into 10 mM initial liquid. The maximum concentration of the compound was 10 μM, 3-fold dilution, 10 concentration gradients, and duplicate wells for each concentration gradient. Experimental processs: 0.1 μL of the compound to be tested was transferred into a 384 reaction plate (PE, 6007290) via Echo and centrifuged at 1000 rpm/min for 1 min. 5 μL JAK1 kinase (final concentration of 4 nM) was transferred into the 384 reaction plate, which was then centrifuged at 1000 rpm/min for 1 min, and incubated at 25° C. for 15 min. 5 μL substrate mixture (1 mM ATP, IRS1 0.05 mg/ml, kinase buffer solution) was transferred into the 384 reaction plate, which was then centrifuged at 1000 rpm/min for 1 min, and incubated at 25° C. for 60 min. 10 μL ADP-Glo was transferred into the 384 reaction plate, which was then centrifuged at 1000 rpm/min for 1 min, and incubated at 25° C. for 40 min. 20 μL test solution was transferred into the 384 reaction plate, which was then centrifuged at 1000 rpm/min for 1 min and incubated at 25° C. for 40 min. RLU (Relative luminescence unit) signal was read by using an Envision multifunctional plate reader. The signal intensity was used to characterize the degree of the kinase activity. […] IC50 value of 0-100 nM is shown as A, IC50 value of 100-300 nM is shown as B, IC50 value of 300-1000 nM is shown as C, and IC50 value which is greater than 1000 nM is shown as D. NT means not tested.
A general note: ADP-Glo turns the ADP formed in a reaction into a luminescent signal.
`Cn1cc(Nc2ncc(F)c(C3=C[C@@H]4CC[C@H](C3)N4C(=O)NCC(F)(F)F)n2)cn1` (single isomer, unassigned) [Compound 12-a] registered a concentration for half-maximal inhibition (IC50) of under 100 nM.

In turn, `Cc1cnc(Nc2cnn(CC(C)(C)O)c2)nc1C1=C[C@@H]2CC[C@H](C1)N2C(=O)NCC(F)(F)F` (single isomer, unassigned) [Compound 29-a] came in with an IC50 of under 100 nM.

Consider `Cn1cc(Nc2nccc(C3=C[C@@H]4CC[C@H](C3)N4C(=O)NCC(F)(F)F)n2)cn1` [Compound 3-a, (1S,5R)-3-(2-((1-methyl-1H-pyrazol-4-yl)amino)pyrimidin-4-yl)-N-(2,2,2-trifluoroethyl)-8-azabicyclo[3.2.1]oct-2-ene-8-carboxamide], for which the IC50 was under 100 nM.

Compound `Cn1cc(Nc2nccc(C3=C[C@H]4CC[C@@H](C3)N4C(=O)NCC(F)(F)F)n2)cn1` [Compound 3-b, (1R,5S)-3-(2-((1-methyl-1H-pyrazol-4-yl)amino)pyrimidin-4-yl)-N-(2,2,2-trifluoroethyl)-8-azabicyclo[3.2.1]oct-2-ene-8-carboxamide] displayed an IC50 of under 100 nM.

For the compound `Cn1cc(Nc2nccc(C3=CC4CCC(C3)N4S(=O)(=O)NCC#N)n2)cn1` (stereo not drawn) [Compound 4, N-(cyanomethyl)-3-(2-((1-methyl-1H-pyrazol-4-yl)amino)pyrimidin-4-yl)-8-azabicyclo[3.2.1]oct-2-ene-8-sulfonamide], the IC50 was over 1000 nM.

Regarding `Cn1cc(Nc2nccc(C3=CC4CCC(C3)N4C(=O)CCC(F)(F)F)n2)cn1` (stereo not drawn) [Compound 5, 4,4,4-trifluoro-1-(3-(2-((1-methyl-1H-pyrazol-4-yl)amino)pyrimidin-4-yl)-8-azabicyclo[3.2.1]oct-2-en-8-yl)butan-1-one], the IC50 lay within 300 to 1000 nM.

In turn, `Cn1cc(Nc2nccc(C3=CC4CCC(C3)N4S(=O)(=O)CCC(F)(F)F)n2)cn1` (stereo not drawn) [Compound 6, N-(1-methyl-1H-pyrazol-4-yl)-4-(8-((3,3,3-trifluoropropyl)sulfonyl)-8-azabicyclo[3.2.1]oct-2-en-3-yl)pyrimidin-2-amine] had an IC50 of over 1000 nM.

Compound `Cn1cc(Nc2nccc(C3=CC4CCC(C3)N4C(=O)N3CC[C@@H](C#N)C3)n2)cn1` (stereo partly drawn) [Compound 7, (R)-1-(3-(2-((1-methyl-1H-pyrazol-4-yl)amino)pyrimidin-4-yl)-8-azabicyclo[3.2.1]oct-2-ene-8-carbonyl)pyrrolidine-3-nitrile] gave an IC50 of over 1000 nM.

In the case of `Cn1cc(Nc2nccc(C3=CC4CCC(C3)N4C(=O)N3CCC(F)(F)C3)n2)cn1` (stereo not drawn) [Compound 8, (3,3-difluoropyrrolidin-1-yl)(3-(2-((1-methyl-1H-pyrazol-4-yl)amino)pyrimidin-4-yl)-8-azabicyclo[3.2.1]oct-2-en-8-yl)methanone], the IC50 fell in the range of 300 to 1000 nM.

The compound `Cn1cc(Nc2nccc(C3=CC4CCC(C3)N4C(=O)N3CCC(C(F)(F)F)C3)n2)cn1` (stereo not drawn) [Compound 9, (3-(2-((1-methyl-1H-pyrazol-4-yl)amino)pyrimidin-4-yl)-8-azabicyclo[3.2.1]oct-2-en-8-yl)(3-(trifluoromethyl)pyrrolidin-1-yl)methanone] displayed an IC50 of over 1000 nM.

Compound `Cn1cc(Nc2nccc(C3=CC4CCC(C3)N4C(=O)N3CC(C#N)C3)n2)cn1` (stereo not drawn) [Compound 10, 1-(3-(2-((1-methyl-1H-pyrazol-4-yl)amino)pyrimidin-4-yl)-8-azabicyclo[3.2.1]oct-2-ene-8-carbonyl)azetidine-3-nitrile] yielded an IC50 of over 1000 nM.

`Cn1cc(Nc2ncc(F)c(C3=C[C@H]4CC[C@@H](C3)N4C(=O)NCC(F)(F)F)n2)cn1` [Compound 12-b, (1R,5S)-3-(5-fluoro-2-((1-methyl-1H-pyrazol-4-yl)amino)pyrimidin-4-yl)-N-(2,2,2-trifluoroethyl)-8-azabicyclo[3.2.1]oct-2-ene-8-carboxamide] had an IC50 of under 100 nM.

`Cn1cc(Nc2nccc(C3=CC4CCC(C3)N4C(=O)C3(C)COC3)n2)cn1` (stereo not drawn) [Compound 13, (3-(2-((1-methyl-1H-pyrazol-4-yl)amino)pyrimidin-4-yl)-8-azabicyclo[3.2.1]oct-2-en-8-yl)(3-methyloxetan-3-yl)methanone] came in with an IC50 of over 1000 nM.

`Cn1cc(Nc2nccc(C3=CC4CCC(C3)N4C(=O)NC3CC3(F)F)n2)cn1` (stereo not drawn) [Compound 14, N-(2,2-difluorocyclopropyl)-3-(2-((1-methyl-1H-pyrazol-4-yl)amino)pyrimidin-4-yl)-8-azabicyclo[3.2.1]oct-2-ene-8-carboxamide]: the IC50 lay within 100 to 300 nM.

In turn, `Cn1cc(Nc2nccc(C3=CC4CCC(C3)N4C(=O)NC3COC3)n2)cn1` (stereo not drawn) [Compound 15, 3-(2-((1-methyl-1H-pyrazol-4-yl)amino)pyrimidin-4-yl)-N-(oxetan-3-yl)-8-azabicyclo[3.2.1]oct-2-ene-8-carboxamide] gave an IC50 of 300 to 1000 nM.

The compound `Cn1cc(Nc2nccc(C3=CC4CCC(C3)N4C(=O)c3ccc(C(F)(F)F)cc3)n2)cn1` (stereo not drawn) [Compound 16, (3-(2-((1-methyl-1H-pyrazol-4-yl)amino)pyrimidin-4-yl)-8-azabicyclo[3.2.1]oct-2-en-8-yl)(4-(trifluoromethyl)phenyl)methanone] came in with an IC50 of over 1000 nM.

For the compound `Cn1cc(Nc2nccc(C3=CC4CCC(C3)N4C(=O)c3ccc(C(F)(F)F)cn3)n2)cn1` (stereo not drawn) [Compound 17, (3-(2-((1-methyl-1H-pyrazol-4-yl)amino)pyrimidin-4-yl)-8-azabicyclo[3.2.1]oct-2-en-8-yl)(5-(trifluoromethyl)pyridin-2-yl)methanone], the IC50 was over 1000 nM.

As for `Cn1cc(Nc2nccc(C3=CC4CCC(C3)N4C(=O)c3cc(C#N)cs3)n2)cn1` (stereo not drawn) [Compound 18, 5-(3-(2-((1-methyl-1H-pyrazol-4-yl)amino)pyrimidin-4-yl)-8-azabicyclo[3.2.1]oct-2-ene-8-formyl)thiophene-3-carbonitrile], the IC50 is over 1000 nM.

Compound `Cc1cnc(Nc2cnn(C)c2)nc1C1=CC2CCC(C1)N2C(=O)NCC(F)(F)F` (stereo not drawn) [Compound 19, 3-(5-methyl-2-((1-methyl-1H-pyrazol-4-yl)amino)pyrimidin-4-yl)-N-(2,2,2-trifluoroethyl)-8-azabicyclo[3.2.1]oct-2-ene-8-carboxamide] yielded an IC50 of under 100 nM.

In turn, `Cc1cnc(Nc2cnn(C)c2)nc1C1=C[C@@H]2CC[C@H](C1)N2C(=O)NCC(F)(F)F` [Compound 19-a, (1S,5R)-3-(5-methyl-2-((1-methyl-1H-pyrazol-4-yl)amino)pyrimidin-4-yl)-N-(2,2,2-trifluoroethyl)-8-azabicyclo[3.2.1]oct-2-ene-8-carboxamide] came in with a 50% inhibitory concentration (IC50) of under 100 nM.

The compound `Cc1cnc(Nc2cnn(C)c2)nc1C1=C[C@H]2CC[C@@H](C1)N2C(=O)NCC(F)(F)F` [Compound 19-b, (1R,5S)-3-(5-methyl-2-((1-methyl-1H-pyrazol-4-yl)amino)pyrimidin-4-yl)-N-(2,2,2-trifluoroethyl)-8-azabicyclo[3.2.1]oct-2-ene-8-carboxamide] had an IC50 of under 100 nM.

For `Cn1cc(Nc2ncc(Cl)c(C3=CC4CCC(C3)N4C(=O)NCC(F)(F)F)n2)cn1` (stereo not drawn) [Compound 20, 3-(5-chloro-2-((1-methyl-1H-pyrazol-4-yl)amino)pyrimidin-4-yl)-N-(2,2,2-trifluoroethyl)-8-azabicyclo[3.2.1]oct-2-ene-8-carboxamide], the half-inhibitory concentration (IC50) is under 100 nM.

Turning to `Cn1cc(Nc2ncc(F)c(C3=CC4CCC(C3)N4C(=O)[C@@H]3CC3(F)F)n2)cn1` (stereo partly drawn) [Compound 21, ((S)-2,2-difluorocyclopropyl)(3-(5-fluoro-2-((1-methyl-1H-pyrazol-4-yl)amino)pyrimidin-4-yl)-8-azabicyclo[3.2.1]oct-2-en-8-yl)methanone], the IC50 was under 100 nM.

On to `Cc1cnc(Nc2cnn(C)c2)nc1C1=CC2CCC(C1)N2C(=O)[C@@H]1CC1(F)F` (stereo partly drawn) [Compound 22, ((S)-2,2-difluorocyclopropyl)(3-(5-methyl-2-((1-methyl-1H-pyrazol-4-yl)amino)pyrimidin-4-yl)-8-azabicyclo[3.2.1]oct-2-en-8-yl)methanone], for which the IC50 is under 100 nM.

Compound `Cc1cnc(Nc2cnn(C)c2)nc1C1=C[C@@H]2CC[C@H](C1)N2C(=O)[C@@H]1CC1(F)F` [Compound 22-a, ((S)-2,2-difluorocyclopropyl)((1S,5R)-3-(5-methyl-2-((1-methyl-1H-pyrazol-4-yl)amino)pyrimidin-4-yl)-8-azabicyclo[3.2.1]oct-2-en-8-yl)methanone] showed an IC50 of 100 to 300 nM.

The compound `Cc1cnc(Nc2cnn(C)c2)nc1C1=C[C@H]2CC[C@@H](C1)N2C(=O)[C@@H]1CC1(F)F` [Compound 22-b, ((S)-2,2-difluorocyclopropyl)((1R,5S)-3-(5-methyl-2-((1-methyl-1H-pyrazol-4-yl)amino)pyrimidin-4-yl)-8-azabicyclo[3.2.1]oct-2-en-8-yl)methanone] showed an IC50 of under 100 nM.

As to `Cn1cc(Nc2ncc(Cl)c(C3=CC4CCC(C3)N4C(=O)[C@@H]3CC3(F)F)n2)cn1` (stereo partly drawn) [Compound 23, (3-(5-chloro-2-((1-methyl-1H-pyrazol-4-yl)amino)pyrimidin-4-yl)-8-azabicyclo[3.2.1]oct-2-en-8-yl)((S)-2,2-difluorocyclopropyl)methanone], the IC50 is under 100 nM.
